{"source": "patent US20260285850A1", "about": "“SUBSTITUTED OXAZOLIDINONES AND IMIDAZOLINONES AS HERBICIDES” (FMC CORPORATION, priority 2023, published 2026)", "assay_type_in_all_cases": "in vivo", "key": {"[1]": {"tested_on": "corn (Zea mays)", "assay": "Test A postemergence application, visual injury rating 0-100", "how_it_was_run": "(§1)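 Visual injury ratings (0, no effect; 100, complete control) were assigned relative to untreated plants 10 days after treatment. Test chemicals, formulated with a surfactant-containing non-phytotoxic solvent, were applied in loam-sand soil either as a directed soil spray before emergence or to emerged plants, and plants were kept in a greenhouse.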"}, "[2]": {"tested_on": "ryegrass, Italian (italian ryegrass, Lolium multiflorum)", "assay": "Test A postemergence application, visual injury rating 0-100", "how_it_was_run": "as §1"}, "[3]": {"tested_on": "palmer (palmer amaranth, palmer pigweed, Amaranthus palmeri)", "assay": "Test A postemergence application, visual injury rating 0-100", "how_it_was_run": "as §1"}, "[4]": {"tested_on": "wheat (Triticum aestivum)", "assay": "Test A postemergence application, visual injury rating 0-100", "how_it_was_run": "as §1"}, "[5]": {"tested_on": "kochia (Bassia scoparia)", "assay": "Test A postemergence application, visual injury rating 0-100", "how_it_was_run": "as §1"}, "[6]": {"tested_on": "blackgrass (Alopecurus myosuroides)", "assay": "Test A postemergence application, visual injury rating 0-100", "how_it_was_run": "as §1"}, "[7]": {"tested_on": "soybean (Glycine max)", "assay": "Test A postemergence application, visual injury rating 0-100", "how_it_was_run": "as §1"}, "[8]": {"tested_on": "green foxtail (Setaria viridis)", "assay": "Test A postemergence application, visual injury rating 0-100", "how_it_was_run": "as §1"}, "[9]": {"tested_on": "oat, wild (wild oat, Avena fatua)", "assay": "Test A postemergence application, visual injury rating 0-100", "how_it_was_run": "as §1"}, "[10]": {"tested_on": "galium (catchweed bedstraw, Galium aparine)", "assay": "Test A postemergence application, visual injury rating 0-100", "how_it_was_run": "as §1"}, "[11]": {"tested_on": "ragweed (common ragweed, Ambrosia artemisiifolia)", "assay": "Test A postemergence application, visual injury rating 0-100", "how_it_was_run": "as §1"}, "[12]": {"tested_on": "barnyardgrass (Echinochloa crus-galli)", "assay": "Test A postemergence application, visual injury rating 0-100", "how_it_was_run": "as §1"}, "[13]": {"tested_on": "horseweed (Erigeron canadensis)", "assay": "Test A postemergence application, visual injury rating 0-100", "how_it_was_run": "as §1"}, "[14]": {"tested_on": "rice (Oryza sativa)", "assay": "Test B flooded paddy test, visual plant response rating 0-100", "conditions": "250 g ai/ha, Flood, applied to paddy water, evaluated after 13 days", "how_it_was_run": "(§2)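 Visual scores versus untreated controls were recorded 13 days after treatment of greenhouse-held plants. At the 2-leaf stage, pots were flooded 3 cm above the soil surface and compounds added straight to the water.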"}, "[15]": {"tested_on": "ducksalad (Heteranthera limosa)", "assay": "Test B flooded paddy test, visual plant response rating 0-100", "conditions": "250 g ai/ha, Flood, applied to paddy water, evaluated after 13 days", "how_it_was_run": "as §2"}, "[16]": {"tested_on": "barnyardgrass (Echinochloa crusgalli)", "assay": "Test B flooded paddy test, visual plant response rating 0-100", "conditions": "250 g ai/ha, Flood, applied to paddy water, evaluated after 13 days", "how_it_was_run": "as §2"}, "[17]": {"tested_on": "sedge, umbrella (small-flower umbrella sedge, Cyperus difformis)", "assay": "Test B flooded paddy test, visual plant response rating 0-100", "conditions": "250 g ai/ha, Flood, applied to paddy water, evaluated after 13 days", "how_it_was_run": "as §2"}, "[18]": {"tested_on": "corn (Zea mays)", "assay": "Test A preemergence soil spray, visual injury rating 0-100", "conditions": "10 days", "how_it_was_run": "as §1"}, "[19]": {"tested_on": "ryegrass, Italian (italian ryegrass, Lolium multiflorum)", "assay": "Test A preemergence soil spray, visual injury rating 0-100", "conditions": "10 days", "how_it_was_run": "as §1"}, "[20]": {"tested_on": "palmer (palmer amaranth, palmer pigweed, Amaranthus palmeri)", "assay": "Test A preemergence soil spray, visual injury rating 0-100", "conditions": "10 days", "how_it_was_run": "as §1"}, "[21]": {"tested_on": "wheat (Triticum aestivum)", "assay": "Test A preemergence soil spray, visual injury rating 0-100", "conditions": "10 days", "how_it_was_run": "as §1"}, "[22]": {"tested_on": "kochia (Bassia scoparia)", "assay": "Test A preemergence soil spray, visual injury rating 0-100", "conditions": "10 days", "how_it_was_run": "as §1"}, "[23]": {"tested_on": "blackgrass (Alopecurus myosuroides)", "assay": "Test A preemergence soil spray, visual injury rating 0-100", "conditions": "10 days", "how_it_was_run": "as §1"}, "[24]": {"tested_on": "soybean (Glycine max)", "assay": "Test A preemergence soil spray, visual injury rating 0-100", "conditions": "10 days", "how_it_was_run": "as §1"}, "[25]": {"tested_on": "green foxtail (Setaria viridis)", "assay": "Test A preemergence soil spray, visual injury rating 0-100", "conditions": "10 days", "how_it_was_run": "as §1"}, "[26]": {"tested_on": "oat, wild (wild oat, Avena fatua)", "assay": "Test A preemergence soil spray, visual injury rating 0-100", "conditions": "10 days", "how_it_was_run": "as §1"}, "[27]": {"tested_on": "ragweed (common ragweed, Ambrosia artemisiifolia)", "assay": "Test A preemergence soil spray, visual injury rating 0-100", "conditions": "10 days", "how_it_was_run": "as §1"}, "[28]": {"tested_on": "barnyardgrass (Echinochloa crus-galli)", "assay": "Test A preemergence soil spray, visual injury rating 0-100", "conditions": "10 days", "how_it_was_run": "as §1"}, "[29]": {"conditions": "62 g ai/ha, postemergence, 10 days, 0 = no effect, 100 = complete control"}, "[30]": {"conditions": "Postemergence, 16 g ai/ha, greenhouse 10 days, 0 no effect, 100 complete control"}, "[31]": {"conditions": "62 g ai/ha, 0 = no effect, 100 = complete control"}, "[32]": {"conditions": "125 g ai/ha, 0 = no effect, 100 = complete control"}}, "data": [{"compound": "CC(C)COC(=O)C1=CCC(NC(=O)C2(C)CN(c3cc(F)cc(F)c3)C(=O)O2)C1", "note": "(centres unmarked) [Compound 98]", "values": [{"measurement": "Corn plant response rating (0-100)", "setting": "[1]; [29]", "result": 100}, {"measurement": "Corn plant response rating (0 to 100 scale)", "setting": "[1]; [30]", "result": 90}, {"measurement": "Ryegrass, Italian plant response rating (0-100)", "setting": "[2]; [29]", "result": 90}, {"measurement": "Ryegrass, Italian plant response rating (0 to 100 scale)", "setting": "[2]; [30]", "result": 80}, {"measurement": "Pigweed, Palmer plant response rating (0-100)", "setting": "[3]; [29]", "result": 90}, {"measurement": "Pigweed, Palmer plant response rating (0 to 100 scale)", "setting": "[3]; [30]", "result": 70}, {"measurement": "Wheat plant response rating (0-100)", "setting": "[4]; [29]", "result": 80}, {"measurement": "Wheat plant response rating (0 to 100 scale)", "setting": "[4]; [30]", "result": 70}, {"measurement": "Kochia plant response rating (0-100)", "setting": "[5]; [29]", "result": 90}, {"measurement": "Kochia plant response rating (0 to 100 scale)", "setting": "[5]; [30]", "result": 80}, {"measurement": "Blackgrass plant response rating (0-100)", "setting": "[6]; [29]", "result": 90}, {"measurement": "Blackgrass plant response rating (0 to 100 scale)", "setting": "[6]; [30]", "result": 80}, {"measurement": "Soybean plant response rating (0-100)", "setting": "[7]; [29]", "result": 60}, {"measurement": "Soybean plant response rating (0 to 100 scale)", "setting": "[7]; [30]", "result": 50}, {"measurement": "Foxtail, Green plant response rating (0-100)", "setting": "[8]; [29]", "result": 90}, {"measurement": "Foxtail, Green plant response rating (0 to 100 scale)", "setting": "[8]; [30]", "result": 80}, {"measurement": "Oat, Wild plant response rating (0-100)", "setting": "[9]; [29]", "result": 100}, {"measurement": "Oat, Wild plant response rating (0 to 100 scale)", "setting": "[9]; [30]", "result": 60}, {"measurement": "Galium plant response rating (0-100)", "setting": "[10]; [29]", "result": 90}, {"measurement": "Galium plant response rating (0 to 100 scale)", "setting": "[10]; [30]", "result": 80}, {"measurement": "Ragweed plant response rating (0-100)", "setting": "[11]; [29]", "result": 60}, {"measurement": "Ragweed plant response rating (0 to 100 scale)", "setting": "[11]; [30]", "result": 50}, {"measurement": "Barnyardgrass plant response rating (0-100)", "setting": "[12]; [29]", "result": 100}, {"measurement": "Barnyardgrass plant response rating (0 to 100 scale)", "setting": "[12]; [30]", "result": 100}, {"measurement": "Horseweed plant response rating (0-100)", "setting": "[13]; [29]", "result": 60}, {"measurement": "Horseweed plant response rating (0 to 100 scale)", "setting": "[13]; [30]", "result": 20}, {"measurement": "Plant response rating, Rice (0 to 100 scale, 0 is no effect and 100 is complete control)", "setting": "[14]", "result": 70}, {"measurement": "Plant response rating, Ducksalad (0 to 100 scale, 0 is no effect and 100 is complete control)", "setting": "[15]", "result": 75}, {"measurement": "Plant response rating, Barnyardgrass (0 to 100 scale, 0 is no effect and 100 is complete control)", "setting": "[16]", "result": 65}, {"measurement": "Plant response rating, Sedge, Umbrella (0 to 100 scale, 0 is no effect and 100 is complete control)", "setting": "[17]", "result": 98}, {"measurement": "Corn plant response rating", "setting": "[18]; 16 g ai/ha, 0 to 100 scale", "result": 0}, {"measurement": "Corn plant response rating (0-100)", "setting": "[18]; [31]", "result": 90}, {"measurement": "Corn plant response rating (0 to 100 scale)", "setting": "[18]; [32]", "result": 20}, {"measurement": "Ryegrass, Italian plant response rating", "setting": "[19]; 16 g ai/ha, 0 to 100 scale", "result": 0}, {"measurement": "Ryegrass, Italian plant response rating (0-100)", "setting": "[19]; [31]", "result": 80}, {"measurement": "Ryegrass, Italian plant response rating (0 to 100 scale)", "setting": "[19]; [32]", "result": 80}, {"measurement": "Pigweed, Palmer plant response rating", "setting": "[20]; 16 g ai/ha, 0 to 100 scale", "result": 10}, {"measurement": "Pigweed, Palmer plant response rating (0-100)", "setting": "[20]; [31]", "result": 50}, {"measurement": "Amaranth, Palmer plant response rating (0 to 100 scale)", "setting": "[20]; [32]", "result": 100}, {"measurement": "Wheat plant response rating", "setting": "[21]; 16 g ai/ha, 0 to 100 scale", "result": 30}, {"measurement": "Wheat plant response rating (0-100)", "setting": "[21]; [31]", "result": 90}, {"measurement": "Wheat plant response rating (0 to 100 scale)", "setting": "[21]; [32]", "result": 70}, {"measurement": "Kochia plant response rating", "setting": "[22]; 16 g ai/ha, 0 to 100 scale", "result": 80}, {"measurement": "Kochia plant response rating (0-100)", "setting": "[22]; [31]", "result": 90}, {"measurement": "Kochia plant response rating (0 to 100 scale)", "setting": "[22]; [32]", "result": 90}, {"measurement": "Blackgrass plant response rating", "setting": "[23]; 16 g ai/ha, 0 to 100 scale", "result": 10}, {"measurement": "Blackgrass plant response rating (0-100)", "setting": "[23]; [31]", "result": 50}, {"measurement": "Blackgrass plant response rating (0 to 100 scale)", "setting": "[23]; [32]", "result": 0}, {"measurement": "Soybean plant response rating", "setting": "[24]; 16 g ai/ha, 0 to 100 scale", "result": 0}, {"measurement": "Soybean plant response rating (0-100)", "setting": "[24]; [31]", "result": 50}, {"measurement": "Soybean plant response rating (0 to 100 scale)", "setting": "[24]; [32]", "result": 10}, {"measurement": "Foxtail, Green plant response rating", "setting": "[25]; 16 g ai/ha, 0 to 100 scale", "result": 70}, {"measurement": "Foxtail, Green plant response rating (0-100)", "setting": "[25]; [31]", "result": 100}, {"measurement": "Oat, Wild plant response rating", "setting": "[26]; 16 g ai/ha, 0 to 100 scale", "result": 0}, {"measurement": "Oat, Wild plant response rating (0-100)", "setting": "[26]; [31]", "result": 40}, {"measurement": "Oat, Wild plant response rating (0 to 100 scale)", "setting": "[26]; [32]", "result": 20}, {"measurement": "Ragweed plant response rating", "setting": "[27]; 16 g ai/ha, 0 to 100 scale", "result": 0}, {"measurement": "Ragweed plant response rating (0-100)", "setting": "[27]; [31]", "result": 0}, {"measurement": "Ragweed plant response rating (0 to 100 scale)", "setting": "[27]; [32]", "result": 50}, {"measurement": "Barnyardgrass plant response rating", "setting": "[28]; 16 g ai/ha, 0 to 100 scale", "result": 10}, {"measurement": "Barnyardgrass plant response rating (0-100)", "setting": "[28]; [31]", "result": 90}, {"measurement": "Barnyardgrass plant response rating (0 to 100 scale)", "setting": "[28]; [32]", "result": 70}]}]}
